# Entries after “also recorded” stand apart in the source; their conditions may differ.
# Key:
# [1] = biological target: antibody D12 single-chain Fv (VH SEQ ID NO:2, VL SEQ ID NO:12; clone 1C with Ala80-Val80 in the lambda light chain); test: Equilibrium dialysis, binding of tritium labelled estradiol to antibody D12; set-up: species or system human; conditions: 22° C., PBS, 20 hr, read-out: dissociation constant for estradiol
# Protocol: Antibody diluted 4-fold to 200-fold was incubated with 50 pM tritium labelled estradiol plus unlabelled estradiol giving total estradiol concentrations from 100 pM to 100 μM. […] Equilibrium dialysis was carried out for 20 hr at 22° C. in phosphate buffered saline with a membrane having a 12 kDa exclusion limit.
# Equilibrium dialysis was carried out at 22° C. in phosphate-bufferedsaline (PBS) using a microdialyzer (Hoefer) with a membrane having a 12 kDa exclusion limit. […] Antibody diluted 4-fold to 200-fold (from 0.7 nM to 33 nM, based on concentrations calculated from binding data) was incubated with 50 pM labelled estradiol (Amersham, tritium-labelled at positions 2,4,6,7,16,17) plus unlabelled estradiol to give total estradiol concentrations from 100 pM-100 μM. Mixtures were equilibrated for 2 h at 22° C. and dialysed against PBS for 20 h with constant mixing, before taking samples from each chamber for measurement of radioactivity.
# Over the range of ligand concentrations necessary for affinity measurement (up to 100 nM), less than 10% of labelled estradiol bound non-specifically. After subtraction of non-specific binding, the dissociation constant (Kd) of estradiol binding to antibody D12 was calculated from equilibrium dialysis data using a non-linear least-squaresfit, assuming a single class of binding sites.
# [2] = test system: antibody D12 single-chain Fv (VH SEQ ID NO:2, VL SEQ ID NO:12); test: ELISA, inhibition of antibody binding to BSA-estradiol by soluble steroid; set-up: species or system human
# Protocol: An ELISA-based screening method was used to rank different clones on the basis of their relative equilibrium dissociation constants for estradiol. In this assay, crude culture supernatant was equilibrated with soluble steroids at a range of concentrations (10 μM, 1 μM, 100 nM and zero estradiol) then applied to ELISA wells coated with […]. Affinity for the soluble steroid was then indicated by a reduction in ELISA signal intensity due to the antibody being in complex with the soluble ligand and unavailable for binding to the plate. This gives a reduction in ELISA signal.
# The binding properties of other steroids were investigated by measuring their ability to compete with estradiol for binding to D12 antibody. This was investigated using the ELISA based screening method (Example 2b) and any cross-reacting compounds were investigated further by equilibrium dialysis.
# Culture supernatant from the antibody clone D12 was equilibrated with soluble steroid at a range of concentrations from 5 nM to 100 mM (or the limit solubility of the steroid), then transferred to an ELISA plate coated with BSA-estradiol. The ELISA plate was then processed as for a standard phage ELISA assay. Affinity for the soluble competing steroid was then indicated by a reduction in ELISA signal intensity due to the antibody being in complex with the soluble ligand and unavailable for binding to the plate.
# [3] = biological target: progesterone-binding antibody from a non immunised murine repertoire; conditions: cited from earlier work
# [4] = biological target: mouse monoclonal antibody DB3; conditions: read-out: dissociation constant; cited from earlier work
# [5] = test system: antibody D12 single-chain Fv (VH SEQ ID NO:2, VL SEQ ID NO:12; clone 1C with Ala80-Val80 in the lambda light chain); test: Equilibrium dialysis, competition of steroids with tritium labelled estradiol for antibody D12; type: binding, human; conditions: for Kd: D12 13.3 nM, 4 nM tritium labelled estradiol, competing steroid 100 nM to 100 μM, competitive inhibition assumed, read-out: affinities (dissociation constants) for cross-reactive steroids
# Protocol: Dissociation constants were measured by equilibrium dialysis using conditions described for testosterone and estriol (FIG. 3 and the description of FIG. 3 given below). All steroids were tested at concentrations ranging from 10 nM to their solubility limits in PBS. The dissociation constants of antibody D12 for these compounds were calculated assuming that they were competitive inhibitors of estradiol binding.
# Antibody D12 (13.3 nM) was incubated with 4 nM tritium labelled estradiol, plus competing steroid (100 nM to 100 μM). Pooled data from 3 experiments. Equilibrium dialysis was carried out for 20 hr at 22° C. in phosphate buffered saline with a membrane having a 12 kDa exclusion limit.
# Antibody D12 (at a concentration of 13.3 nM) was incubated for 2 h with a mixture containing both tritium labelled estradiol (4 nM) and the competing steroid (100 nM to 100 μM), before equilibrium dialysis. The binding of other steroids to D12 antibody was quantified assuming competitive inhibition of estradiol binding. Data was analyzed with proprietary software (FIG.P package: Elsevier Biosoft).
# [6] = soluble steroid 5 nM to 100 mM (or the limit solubility of the steroid)
smiles,measurement,setting,value
"C[C@]12CC[C@@H]3c4ccc(O)cc4CC[C@H]3[C@@H]1CC[C@@H]2O [estradiol, 1,3,5.estratriene 3,17 β-diol]",Kd,[1],0.0037 µM
"C[C@]12CC[C@@H]3c4ccc(O)cc4CC[C@H]3[C@@H]1C[C@@H](O)[C@@H]2O [Estriol, estriol]",inhibition of binding to BSA-estradiol in ELISA,[2]; soluble steroid at 30 μM,did not inhibit estradiol binding
CC(=O)[C@H]1CC[C@H]2[C@@H]3CCC4=CC(=O)CC[C@]4(C)[C@H]3CC[C@]12C [progesterone],dissociation constant,[3],only micromolar
same,inhibition of binding to BSA-estradiol in ELISA,[2]; soluble steroid at 100 μM,inhibited estradiol binding; also recorded: inhibited only at very high concentrations
same,Kd,[4],~0.001 µM
C[C@]12CC[C@H]3[C@@H](CCC4=CC(=O)CC[C@@]43C)[C@@H]1CC[C@@H]2O [testosterone],inhibition of binding to BSA-estradiol in ELISA,[2]; soluble steroid at 30 μM,inhibited estradiol binding; also recorded: showed inhibition
same,selectivity for estradiol over the steroid,[5],"approximately 1,000 fold"
same,Kd,[5],15 µM
C[C@]12CC[C@@H]3c4ccc(O)cc4CC[C@H]3[C@@H]1C[C@H](O)[C@@H]2O [16-epiestriol],inhibition of binding to BSA-estradiol in ELISA,[2]; soluble steroid at 100 μM,inhibited estradiol binding; also recorded: inhibited only at very high concentrations
same,Kd,[5],163 µM
C[C@]12CC[C@@H]3c4ccc(O)cc4CC[C@H]3[C@@H]1C[C@@H](O)[C@H]2O [17-epiestriol],inhibition of binding to BSA-estradiol in ELISA,[2]; soluble steroid at 100 μM,inhibited estradiol binding; also recorded: inhibited only at very high concentrations
C[C@]12CCC(=O)C[C@@H]1CC[C@@H]1[C@@H]2CC[C@]2(C)[C@@H](O)CC[C@@H]12 [dihydrotestosterone],inhibition of binding to BSA-estradiol in ELISA,[2]; soluble steroid at 30 μM,showed inhibition
same,inhibition of binding to BSA-estradiol in ELISA,"[2]; soluble steroid at 30 μM, listed as Dihydrotestosterone",inhibited estradiol binding
C[C@]12CC[C@@H]3c4ccc(OS(=O)(=O)O)cc4CC[C@H]3[C@@H]1C[C@@H](O)[C@@H]2O [Estriol-3-sulphate],inhibition of binding to BSA-estradiol in ELISA,[2]; soluble steroid at 100 μM,inhibited estradiol binding
same,inhibition of binding to BSA-estradiol in ELISA,"[2]; soluble steroid at 100 μM, listed as Estriol-3 sulphate",inhibited only at very high concentrations
C[C@]12CC[C@@H]3c4ccc(O[C@@H]5O[C@H](C(=O)O)[C@@H](O)[C@H](O)[C@H]5O)cc4CC[C@H]3[C@@H]1C[C@@H](O)[C@@H]2O [estriol-3-β-D-glucuronide],inhibition of binding to BSA-estradiol in ELISA,[2]; [6],neither cholesterol nor estriol-3-β-D-glucuronide inhibited
same,inhibition of binding to BSA-estradiol in ELISA,"[2]; soluble steroid 5 nM to 100 mM (or the limit solubility of the steroid), listed as Estriol-3-β-D-glucuronide",did not show any inhibition
CC(C)CCC[C@@H](C)[C@H]1CC[C@H]2[C@@H]3CC=C4C[C@@H](O)CC[C@]4(C)[C@H]3CC[C@]12C [cholesterol],inhibition of binding to BSA-estradiol in ELISA,[2]; [6],neither cholesterol nor estriol-3-β-D-glucuronide inhibited; also recorded: did not show any inhibition

# — patent US5977319A, “Specific binding members for estradiol; materials and methods” (Cambridge Antibody Technology Limited, priority 1997, dated 1999)
